Source: the supplement of paper PMC12137928
Structures can show the parent of a compound that is named as a salt.

Legend:
HCT116 [1] = conditions: 72 h
Summary of the method: (§1)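 HCT116 cells were seeded at 250 per well in 1536-well plates with 5 h allowed for attachment. CellTiter-Glo luminescence was normalized against vehicle (0%) and positive control (-100%) before pattern correction. The IC50 and maximal efficacy figures derive from four-parameter Hill fits.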

HCT116 [2] = test: efficacy (maximum % inhibition of viability vs DMSO); higher = more cytotoxic; conditions: 72 h
Summary of the method: as §1

Compound	IC50 cell viability (HCT116 [1]; ICRF193 0 nM) [µM]	IC50 cell viability (HCT116 [1]; ICRF193 200 nM) [µM]	efficacy (HCT116 [2]; ICRF193 0 nM) [%]	efficacy (HCT116 [2]; ICRF193 200 nM) [%]
CN1CCCC(CC2c3ccccc3Sc3ccccc32)C1 (stereo not drawn) [Metixene hydrochloride]	20.6	25.9	109	94.6
COc1cc(Nc2c(C#N)cnc3cc(OCCCN4CCN(C)CC4)c(OC)cc23)c(Cl)cc1Cl [Bosutinib]	29.1	18.3	106	132
OCCN1CCN(CCCN2c3ccccc3Sc3ccc(Cl)cc32)CC1 [Perphenazine]	23.1	23.1	108	115
COc1ccc(Cc2nccc3cc(OC)c(OC)cc23)cc1OC [Papaverine hydrochloride]	> 45.8	3.66		41.6
C[C@@H]1O[C@@H](O[C@H]2C[C@@H](O)[C@]3(CO)[C@H]4[C@H](O)C[C@]5(C)[C@@H](C6=CC(=O)OC6)CC[C@]5(O)[C@@H]4CC[C@]3(O)C2)[C@H](O)[C@H](O)[C@H]1O [Ouabain octahydrate]	0.116	0.13	104	84.4
C#C[C@]1(O)CC[C@H]2[C@@H]3CCc4cc(O)ccc4[C@H]3CC[C@@]21C [Ethinylestradiol]	> 45.8	20.6		41.1
CC[C@H](C)C(=O)O[C@H]1C[C@@H](C)C=C2C=C[C@H](C)[C@H](CC[C@@H]3C[C@@H](O)CC(=O)O3)[C@H]21 [Lovastatin]	> 45.8	20.6		46.5
O=C(CCCN1CCN(c2ccccn2)CC1)c1ccc(F)cc1 [Azaperone]	> 45.8	0.206		87.6
Cc1[nH]c2ccccc2c1CCNCc1ccc(/C=C/C(=O)NO)cc1 [Panobinostat]	0.0651	0.058	95.6	94.8
C[C@@H]1O[C@@H](O[C@@H]2C=C3CC[C@@H]4[C@H](CC[C@]5(C)[C@@H](c6ccc(=O)oc6)CC[C@]45O)[C@@]3(C)CC2)[C@H](O)[C@H](O)[C@H]1O [Proscillaridin]	0.0164	0.013	107	91.3
CO[C@H]1[C@@H](O)C[C@H](O[C@H]2[C@@H](O)C[C@H](O[C@H]3[C@@H](O)C[C@H](O[C@H]4CC[C@@]5(C)[C@H](CC[C@@H]6[C@@H]5C[C@@H](O)[C@]5(C)[C@@H](C7=CC(=O)OC7)CC[C@]65O)C4)O[C@@H]3C)O[C@@H]2C)O[C@@H]1C [Methyldigoxin]	0.0891	0.1	90.7	86.6
O=C1CSC2(CCN(CCCN3c4ccccc4Sc4ccc(Cl)cc43)CC2)N1 [Spiclomazine hydrochloride]	20.6	23.1	81.3	82.5
CC(C)C[C@H](NC(=O)[C@H](CCc1ccccc1)NC(=O)CN1CCOCC1)C(=O)N[C@@H](Cc1ccccc1)C(=O)N[C@@H](CC(C)C)C(=O)[C@@]1(C)CO1 [Carfilzomib]	0.0183	0.0164	86	89.7
CCOC(=O)C1=C(COCCN)NC(C)=C(C(=O)OC)C1c1ccccc1Cl (stereo not drawn) [Amlodipine]	> 45.8	16.4		88.3
CNCCC(Oc1ccc(C(F)(F)F)cc1)c1ccccc1 (racemic) [(+/-) -Fluoxetine]	29.1	18.3	106	102
CCCCC(=O)OCC(=O)[C@]1(O)Cc2c(O)c3c(c(O)c2[C@@H](O[C@H]2C[C@H](NC(=O)C(F)(F)F)[C@H](O)[C@H](C)O2)C1)C(=O)c1c(OC)cccc1C3=O [Valrubicin]	3.66	2.31	90.1	97.8
Cc1cc(O)c2ccccc2c1O [Menadiol]	> 45.8	20.6		41.5

Compound	IC50 cell viability (HCT116 [1]; ICRF193 0 nM) [µM]	IC50 cell viability (HCT116 [1]; ICRF193 200 nM) [µM]	efficacy (HCT116 [2]; ICRF193 0 nM) [%]	efficacy (HCT116 [2]; ICRF193 200 nM) [%]
O=C(/C=C/c1cccc(S(=O)(=O)Nc2ccccc2)c1)NO [Belinostat]	1.3	1.16	100	62.1
CN1CCN(CCCN2c3ccccc3Sc3ccc(C(F)(F)F)cc32)CC1 [Fluoperazine dihydrochloride]	18.3	18.3	92.3	94.5
CCCCc1oc2ccccc2c1C(=O)c1cc(I)c(OCCN(CC)CC)c(I)c1 [Amiodarone hydrochloride]	20.6	16.4	92.6	93
CCC(C)C1O[C@]2(C=C[C@@H]1C)C[C@@H]1CC(C/C=C(\C)[C@@H](OC3C[C@H](OC)[C@@H](OC4C[C@H](OC)[C@@H](O)[C@H](C)O4)[C@H](C)O3)[C@@H](C)/C=C/C=C3\COC4[C@H](O)C(C)=CC(C(=O)O1)[C@]34O)O2 (stereo partly drawn) [Avermectin B1a]	8.2	> 45.8	92.3	
CC(C)COCC(CN(Cc1ccccc1)c1ccccc1)N1CCCC1 (stereo not drawn) [Bepridil]	20.6	29.1	85.1	73.2
C[C@@H]1CCO[C@H]2Cn3cc(C(=O)NCc4ccc(F)cc4F)c(=O)c(O)c3C(=O)N12	25.9	20.6	82.5	106
CCCCCCCCc1ccc(CCC(N)(CO)CO)cc1 [Fingolimod hydrochloride]	29.1	20.6	108	100
COC1=C(OC)C(=O)C(CCCCCCCCCCO)=C(C)C1=O [Idebenone]	20.6	20.6	49.5	56.6
Cc1cc(/C=C/C#N)cc(C)c1Nc1ccnc(Nc2ccc(C#N)cc2)n1 [Rilpivirine]	20.6	18.3	83.7	84.8
CCc1oc2ccccc2c1C(=O)c1cc(I)c(O)c(I)c1 [Benziodarone]	> 45.8	29.1		44.1
CS(=O)(=O)CCNCc1ccc(-c2ccc3ncnc(Nc4ccc(OCc5cccc(F)c5)c(Cl)c4)c3c2)o1 [Lapatinib]	16.4	20.6	106	110
CC[C@H]1OC(=O)C[C@@H](OC(C)=O)[C@H](C)[C@@H](O[C@@H]2O[C@H](C)[C@@H](O[C@H]3C[C@@](C)(O)[C@@H](OC(=O)CC(C)C)[C@H](C)O3)[C@H](N(C)C)[C@H]2O)[C@@H](CC=O)C[C@@H](C)C(=O)/C=C/C(C)=C/[C@@H]1CO[C@@H]1O[C@H](C)[C@@H](O)[C@@H](OC)[C@H]1OC [Tylvalosin]	> 45.8	18.3		53.7
CC(=O)O[C@@]12CO[C@@H]1C[C@H](O)[C@@]1(C)C(=O)[C@H](O)C3=C(C)[C@@H](OC(=O)[C@H](O)[C@@H](NC(=O)OC(C)(C)C)c4ccccc4)C[C@@](O)([C@@H](OC(=O)c4ccccc4)[C@H]21)C3(C)C [Docetaxel]	0.0103	0.0146	60.8	56.5
CN(C)CCCN1c2ccccc2CCc2ccc(Cl)cc21 [Clomipramine hydrochloride]	18.3	20.6	74.9	90.5
CC[C@H](c1ccc(O)cc1)[C@@H](CC)c1ccc(O)cc1 [Hexestrol]	16.4	20.6	69.4	64.6
CNCCCC12CCC(c3ccccc31)c1ccccc12 [Maprotiline hydrochloride]	> 45.8	29.1		86.5
N#CC[C@H](C1CCCC1)n1cc(-c2ncnc3[nH]ccc23)cn1 [Ruxolitinib]	29.1	29.1	85.9	88.8

Continued, in another order:

IC50 cell viability (HCT116 [1]; ICRF193 0 nM) [µM]	IC50 cell viability (HCT116 [1]; ICRF193 200 nM) [µM]	Compound	efficacy (HCT116 [2]; ICRF193 0 nM) [%]	efficacy (HCT116 [2]; ICRF193 200 nM) [%]
20.6	16.4	CCCC[C@H](C)C[C@H](O)/C=C/[C@H]1[C@H](O)CC(=O)[C@@H]1CCCC/C=C/C(=O)O [Limaprost]	81.4	77.6
18.3	20.6	Cc1cncc(CN2CCC(=C3c4ccc(Cl)cc4CCc4cccnc43)CC2)c1 [Rupatadine (Fumarate)]	56.6	88.3
8.2	5.8	CNC(=O)c1cc(Oc2ccc(NC(=O)Nc3ccc(Cl)c(C(F)(F)F)c3)c(F)c2)ccn1 [Regorafenib]	67.3	80.7
> 45.8	29.1	CCCCCCCC(=O)N[C@H](CN1CCCC1)[C@H](O)c1ccc2c(c1)OCCO2 [Eliglustat (Tartrate)]		44.2
> 45.8	3.66	CN(C)C(=S)SC(=S)N(C)C [Tetramethylthiuram monosulfide]		40.7
18.3	18.3	Cc1ccc(-c2cc(C(F)(F)F)nn2-c2ccc(S(N)(=O)=O)cc2)cc1 [Celecoxib]	47.1	58.1
29.1	20.6	OCCN1CCN(CCCN2c3ccccc3Sc3ccc(C(F)(F)F)cc32)CC1 [Fluphenazine hydrochloride]	110	104
29.1	29.1	Nc1nc(N)c2nc(-c3ccccc3)c(N)nc2n1 [Triamterene]	95.4	92.7
23.1	9.2	CC(C)(C)c1nc(-c2cccc(NS(=O)(=O)c3c(F)cccc3F)c2F)c(-c2ccnc(N)n2)s1 [Dabrafenib]	46.2	81.6
18.3	16.4	CCN(CC)CCNC(=O)c1c(C)[nH]c(/C=C2\C(=O)Nc3ccc(F)cc32)c1C [Sunitinib malate]	108	111
18.3	20.6	CCOC(=O)C1=C(C)NC(C)=C(C(=O)OCC)C1c1ccccc1/C=C/C(=O)OC(C)(C)C [Lacidipine]	94	108
20.6	16.4	CO/N=C1\C[C@]2(C[C@@H]3C[C@@H](C/C=C(\C)C[C@@H](C)/C=C/C=C4\CO[C@@H]5[C@H](O)C(C)=C[C@@H](C(=O)O3)[C@]45O)O2)O[C@H](/C(C)=C/C(C)C)[C@H]1C [Moxidectin]	128	111
5.17	6.51	COc1cccc2c1C(=O)c1c(O)c3c(c(O)c1C2=O)C[C@@](O)(C(=O)CO)C[C@@H]3O[C@H]1C[C@H](N)[C@H](O[C@@H]2CCCCO2)[C@H](C)O1 [Pirarubicin]	127	104
29.1	20.6	COC1=CC(=O)C[C@@H](C)[C@]12Oc1c(Cl)c(OC)cc(OC)c1C2=O [Griseofulvin]	66.1	65
23.1	29.1	CN1CCN2c3ccccc3Cc3ccccc3C2C1 (stereo not drawn) [Mianserin]	51	62
29.1	23.1	CCCCC[C@H](O)/C=C/[C@H]1[C@H](O)CC(=O)[C@@H]1C/C=C\CCCC(=O)O [Prostaglandin E2]	68.9	84.7
> 45.8	18.3	Oc1ccc(CCNCCCCCCNCCc2ccccc2)cc1O [Dopexamine]		47.3
> 45.8	20.6	C=C1/C(=C\C=C2/CCC[C@]3(C)[C@@H]([C@H](C)/C=C/[C@@H](O)C4CC4)CC[C@@H]23)C[C@@H](O)C[C@@H]1O [Calcipotriene]		54
18.3	18.3	CC(C)COc1ccc(CNC(=O)N(Cc2ccc(F)cc2)C2CCN(C)CC2)cc1 [Pimavanserin]	96.9	97.4
